For this assay, the target named is PD-1/PD-L1 (Homo sapiens (Human), UniProt Q9NZQ7). The assay can be described thus: PD-1/PD-L1 biochemical protein-protein interaction assay (ALPHA). Particulars: 0.3 nM His tagged PD-L1, 2.5 nM biotinylated Fc-PD-1, 60 minutes at 25° C., read-out: IC50 PD-L1-PD1.
PD-1/PD-L1, sequence (Q9NZQ7 19-238): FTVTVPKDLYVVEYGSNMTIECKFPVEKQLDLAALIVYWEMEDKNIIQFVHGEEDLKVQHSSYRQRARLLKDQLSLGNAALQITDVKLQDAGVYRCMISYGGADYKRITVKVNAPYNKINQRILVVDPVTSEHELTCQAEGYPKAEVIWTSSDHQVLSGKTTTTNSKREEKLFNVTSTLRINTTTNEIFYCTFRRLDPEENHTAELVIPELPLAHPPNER

As usually defined, the IC50 is the concentration that gives 50% inhibition. `CCC(=O)NC1CCN(Cc2ncc(-c3cccc(-c4cccc(-c5cnc(CNC[C@@H]6CCC(=O)N6)c(OC)n5)c4Cl)c3Cl)nc2OC)C1` (stereo partly shown) [compound 452]: the IC50 was found to be 86 pM. Under `COc1nc(-c2cccc(-c3cccc(-c4cnc(CN5CCCC5(C)CO)c(OC)n4)c3Cl)c2Cl)cnc1CNC[C@@H]1CCC(=O)N1` (stereo partly shown) [compound 453] stands 139 pM; under `COc1nc(-c2cccc(-c3cccc(-c4cnc(CNCCOC(N)=O)c(OC)n4)c3Cl)c2Cl)cnc1CNCCOC(N)=O` [compound 454], 64 pM; under `COc1nc(-c2cccc(-c3cccc(-c4cnc(CNCc5cnn(CCO)c5)c(OC)n4)c3Cl)c2Cl)cnc1CNCc1cnn(CCO)c1` [compound 455], 145 pM. Under `COc1nc(-c2cccc(-c3cccc(-c4cnc(CNCc5cn[nH]c5)c(OC)n4)c3Cl)c2Cl)cnc1CNCc1cn[nH]c1` [compound 456] stands 186 pM; under `COc1nc(-c2cccc(-c3cccc(-c4cnc(CN5CCC([C@H](C)O)CC5)c(OC)n4)c3Cl)c2Cl)cnc1CNC[C@@H]1CCC(=O)N1` [compound 457], 172 pM; under `COc1nc(-c2cccc(-c3cccc(-c4cnc(CN[C@H]5CC[C@@H](C#N)C5)c(OC)n4)c3Cl)c2Cl)cnc1CNC[C@@H]1CCC(=O)N1` [compound 458], 87 pM.

Regarding `COc1nc(-c2cccc(-c3cccc(-c4cnc(CN(C)C[C@H]5C[C@H](O)C5)c(OC)n4)c3Cl)c2Cl)cnc1CNC[C@@H]1CCC(=O)N1` [compound 459], the concentration for half-maximal inhibition (IC50) was 344 pM. To `COCC1(CO)CCN(Cc2ncc(-c3cccc(-c4cccc(-c5cnc(CN6CCC(CO)(COC)C6)c(OC)n5)c4Cl)c3Cl)nc2OC)C1` (stereo not shown) [compound 460] belongs 157 pM. As for `COc1nc(-c2cccc(-c3cccc(-c4cnc(CNC[C@@H]5CCC(=O)N5)c(OC)n4)c3Cl)c2Cl)cnc1CNCCc1nnc[nH]1` [compound 461], the IC50 turned out to be 159 pM. To `COc1nc(-c2cccc(-c3cccc(-c4cnc(CN5CCC(c6nnc[nH]6)C5)c(OC)n4)c3Cl)c2Cl)cnc1CNC[C@@H]1CCC(=O)N1` (stereo partly shown) [compound 462] belongs 346 pM; to `COCC1(CO)CCN(Cc2ncc(-c3cccc(-c4cccc(-c5cnc(CNC[C@@H]6CCC(=O)N6)c(OC)n5)c4Cl)c3Cl)nc2OC)C1` (stereo partly shown) [compound 463], 76 pM; to `COc1nc(-c2cccc(-c3cccc(-c4cnc(CN[C@H]5C[C@@H](C(N)=O)C5)c(OC)n4)c3Cl)c2Cl)cnc1CNC[C@@H]1CCC(=O)N1` [compound 464], 110 pM. Turning to `COc1nc(-c2cccc(-c3cccc(-c4cnc(CN[C@H]5C[C@H](C(N)=O)C5)c(OC)n4)c3Cl)c2Cl)cnc1CNC[C@@H]1CCC(=O)N1` [compound 465], the IC50 turned out to be 158 pM. To `COc1nc(-c2cccc(-c3cccc(-c4cnc(CNC5CCN(C(N)=O)CC5)c(OC)n4)c3Cl)c2Cl)cnc1CNC1CCN(C(N)=O)CC1` [compound 466] belongs 73 pM; to `COc1nc(-c2cccc(-c3cccc(-c4cnc(CNCC5CCN(C(N)=O)C5)c(OC)n4)c3Cl)c2Cl)cnc1CNCC1CCN(C(N)=O)C1` (stereo not shown) [compound 467], 146 pM. Under `CNC(=O)C1CCN(Cc2ncc(-c3cccc(-c4cccc(-c5cnc(CC6CCN(C(=O)NC)C6)c(OC)n5)c4Cl)c3Cl)nc2OC)C1` (stereo not shown) [compound 468] stands 123 pM; under `COc1nc(-c2cccc(-c3cccc(-c4cnc(CN[C@@H]5CCC5C)c(OC)n4)c3Cl)c2Cl)cnc1CNC[C@@H]1CCC(=O)N1` (stereo partly shown) [compound 469], 260 pM. Under `COc1nc(-c2cccc(-c3cccc(-c4cnc(CNC5CCN(C(N)=O)CC5)c(OC)n4)c3Cl)c2Cl)cnc1CNC[C@@H]1CCC(=O)N1` [compound 470] stands 94 pM; under `COc1nc(-c2cccc(-c3cccc(-c4cnc(CNC[C@@H]5CCC(=O)N5)c(OC)n4)c3Cl)c2Cl)cnc1CNCC1CCN(C(N)=O)C1` (stereo partly shown) [compound 471], 119 pM; under `CNC(=O)C1CCN(Cc2ncc(-c3cccc(-c4cccc(-c5cnc(CNC[C@@H]6CCC(=O)N6)c(OC)n5)c4Cl)c3Cl)nc2OC)C1` (stereo partly shown) [compound 472], 66 pM.

For `COc1nc(-c2cccc(-c3cccc(-c4cnc(CN[C@@H]5CCC(C(N)=O)C5)c(OC)n4)c3Cl)c2Cl)cnc1CNC[C@@H]1CCC(=O)N1` (stereo partly shown) [compound 473], the IC50 was found to be 93 pM.

Regarding `COc1nc(-c2cccc(-c3cccc(-c4cnc(CN5C6COCC5C6)c(OC)n4)c3Cl)c2Cl)cnc1CN1C2COCC1C2` [compound 474], the half-maximal inhibitory concentration (IC50) is 219 pM.

For `COc1nc(-c2cccc(-c3cccc(-c4cnc(CNC[C@H]5CNC(=O)C5)c(OC)n4)c3Cl)c2Cl)cnc1CNC[C@H]1CNC(=O)C1` [compound 475], the 50% inhibitory concentration (IC50) was found to be 162 pM. Under `COc1nc(-c2cccc(-c3cccc(-c4cnc(CNC[C@H]5CCC[C@@H]5O)c(OC)n4)c3Cl)c2Cl)cnc1CNC[C@H]1CCC[C@@H]1O` [compound 476] stands 622 pM.

In the case of `COc1nc(-c2cccc(-c3cccc(-c4cnc(CN5CC6CC5(CO)C6)c(OC)n4)c3Cl)c2Cl)cnc1CN1CC2CC1(CO)C2` [compound 477], the IC50 was 246 pM. Under `COc1nc(-c2cccc(-c3cccc(-c4cnc(CN5CC(C(C)(C)O)C5)c(OC)n4)c3Cl)c2Cl)cnc1CN1CC(C(C)(C)O)C1` [compound 478] stands 64 pM; under `COc1nc(-c2cccc(-c3cccc(-c4cnc(CNC[C@@H]5CNC(=O)C5)c(OC)n4)c3Cl)c2Cl)cnc1CNC[C@@H]1CNC(=O)C1` [compound 480], 64 pM. Under `COc1nc(-c2cccc(-c3cccc(-c4cnc(CNC[C@@H]5CCC(=O)N5)c(OC)n4)c3Cl)c2Cl)cnc1CNC[C@H]1CNC(=O)C1` [compound 481] stands 227 pM. To `COc1nc(-c2cccc(-c3cccc(-c4cnc(CN5CC[C@]6(O)C[C@@H]6C5)c(OC)n4)c3Cl)c2Cl)cnc1CNC[C@@H]1CCC(=O)N1` [compound 482] belongs 108 pM; to `COc1nc(-c2cccc(-c3cccc(-c4cnc(CN5CCCC5C(C)(C)O)c(OC)n4)c3Cl)c2Cl)cnc1CNC[C@@H]1CCC(=O)N1` (stereo partly shown) [compound 483], 341 pM. For `COc1nc(-c2cccc(-c3cccc(-c4cnc(CN5CC(C(C)(C)O)C5)c(OC)n4)c3Cl)c2Cl)cnc1CNC[C@@H]1CCC(=O)N1` [compound 484], the concentration for half-maximal inhibition (IC50) was found to be 122 pM.

Turning to `COc1nc(-c2cccc(-c3cccc(-c4cnc(CN5C6COCC5C6)c(OC)n4)c3Cl)c2Cl)cnc1CNC[C@@H]1CCC(=O)N1` [compound 485], the concentration for half-maximal inhibition (IC50) is 229 pM. To `COc1nc(-c2cccc(-c3cccc(-c4cnc(CNCC5(O)CCC5)c(OC)n4)c3Cl)c2Cl)cnc1CNC[C@@H]1CCC(=O)N1` [compound 486] belongs 290 pM; to `COc1nc(-c2cccc(-c3cccc(-c4cnc(CN5C[C@H](C)[C@@H](O)C5)c(OC)n4)c3Cl)c2Cl)cnc1CNC[C@@H]1CCC(=O)N1` [compound 487], 123 pM. Under `CNc1nc(-c2cccc(-c3cccc(-c4cnc(CNC[C@@H]5CCC(=O)N5)c(OC)n4)c3Cl)c2Cl)cnc1CN1CC2(C1)CN(C(C)=O)C2` [compound 488] stands 64 pM; under `COc1nc(-c2cccc(-c3cccc(-c4cnc5c(CN6CC7(C6)CN(C(C)=O)C7)nn(C)c5n4)c3Cl)c2Cl)cnc1CN1CC2(C1)CN(C(C)=O)C2` [compound 489], 332 pM; under `CCn1nc(CN2CC3(C2)CN(C(C)=O)C3)c2ncc(-c3cccc(-c4cccc(-c5cnc(CN6CC7(C6)CN(C(C)=O)C7)c(OC)n5)c4Cl)c3Cl)nc21` [compound 490], 565 pM. To `COc1nc(-c2cccc(-c3cccc(-c4ccc5c(CN6CC7(C6)CN(C(C)=O)C7)cn(C)c5n4)c3Cl)c2Cl)cnc1CN1CC2(C1)CN(C(C)=O)C2` [compound 491] belongs 64 pM; to `COc1nc(-c2cccc(-c3cccc(-c4ccc5c(CN6CC(O)C6)cn(C)c5n4)c3Cl)c2Cl)cnc1CN1CC(O)C1` [compound 492], 92 pM; to `COc1nc(-c2cccc(-c3cccc(-c4ccc5c(CN6CC7(CNC(=O)C7)C6)cn(C)c5n4)c3Cl)c2Cl)cnc1CN1CC2(CNC(=O)C2)C1` [compound 493], 109 pM. As for `COc1nc(-c2cccc(-c3cccc(-c4ccc5c(CN6CC7(CCC(=O)N7)C6)cn(C)c5n4)c3Cl)c2Cl)cnc1CN1CC2(CCC(=O)N2)C1` [compound 494], the 50% inhibitory concentration (IC50) worked out at 139 pM. To `COc1nc(-c2cccc(-c3cccc(-c4ccc5c(CNC[C@@H]6CCC(=O)N6)cn(C)c5n4)c3Cl)c2Cl)cnc1CNC[C@@H]1CCC(=O)N1` [compound 495] belongs 247 pM; to `OC1CN(Cc2ncc(-c3cccc(-c4cccc(-c5cnc(CN6CC(O)C6)c(N6CCC6)n5)c4Cl)c3Cl)nc2N2CCC2)C1` [compound 496], 386 pM; to `COc1nc(-c2cccc(-c3cccc(-c4cnc(CN5CC6(CNC(=O)C6)C5)c(OC)n4)c3Cl)c2F)ccc1CN1CC2(CNC(=O)C2)C1` [compound 497], 276 pM. Consider `COc1nc(-c2cccc(-c3cccc(-c4cnc(CNC[C@@H]5CCC(=O)N5)c(OC)n4)c3Cl)c2F)ccc1CNC[C@@H]1CCC(=O)N1` [compound 498], for which the IC50 turned out to be 169 pM. Under `COc1nc(-c2cccc(-c3cccc(-c4cnc(CN5CC[C@@H](C(C)(C)O)C5)c(OC)n4)c3Cl)c2Cl)cnc1CN1CC[C@@H](C(C)(C)O)C1` [compound 499] stands 203 pM.

Take `COc1nc(-c2cccc(-c3cccc(-c4cnc(CN5CC[C@H](C(C)(C)O)C5)c(OC)n4)c3Cl)c2Cl)cnc1CN1CC[C@H](C(C)(C)O)C1` [compound 500]: the IC50 is 232 pM.

As to `COc1nc(-c2cccc(-c3cccc(-c4cnc(CN5CC[C@@H](C(C)(C)O)C5)c(OC)n4)c3Cl)c2Cl)cnc1CNC[C@@H]1CCC(=O)N1` [compound 501], the IC50 is 87 pM. To `COc1nc(-c2cccc(-c3cccc(-c4cnc(CN5CC[C@H](C(C)(C)O)C5)c(OC)n4)c3Cl)c2Cl)cnc1CNC[C@@H]1CCC(=O)N1` [compound 502] belongs 64 pM. To `COc1nc(-c2cccc(-c3cccc(-c4cnc(CN5CCC(C(N)=O)CC5)c(OC)n4)c3Cl)c2Cl)cnc1CNC[C@@H]1CCC(=O)N1` [compound 508] belongs 84 pM; to `COc1nc(-c2cccc(-c3cccc(-c4cnc(CNC5CCOCC5)c(OC)n4)c3Cl)c2Cl)cnc1CNC[C@@H]1CCC(=O)N1` [compound 509], 106 pM.

The record behind these values is patent US10710986B2, “PD-1/PD-L1 inhibitors” (Gilead Sciences, Inc., priority 2018, dated 2020).
